Assay results published in ChEMBL document CHEMBL3853265 (Medchemcomm, 2016).
In brackets after ≈: the same amount, converted by molar mass.

Tests used:
[1] = Permeability in RRCK cells; format: ADME, cell-based, Canis lupus familiaris, MDCKII-LE; conditions: dog, MDCK; read-out: permeability
[2] = Renal clearance in dog at 1 mg/kg, iv and 3 mg/kg, po relative to GFR x fraction unbound; format: ADME, organism-based, Canis lupus familiaris; conditions: in vivo
[3] = target: T1, Solute carrier organic anion transporter family member 1B3 (Homo sapiens, UniProt Q9NPD5); experiment: Drug uptake assessed as human OATP1B3-mediated drug accumulation by cell-based assay relative to wild type protein; format: ADME
T1 sequence (Q9NPD5 whole entry): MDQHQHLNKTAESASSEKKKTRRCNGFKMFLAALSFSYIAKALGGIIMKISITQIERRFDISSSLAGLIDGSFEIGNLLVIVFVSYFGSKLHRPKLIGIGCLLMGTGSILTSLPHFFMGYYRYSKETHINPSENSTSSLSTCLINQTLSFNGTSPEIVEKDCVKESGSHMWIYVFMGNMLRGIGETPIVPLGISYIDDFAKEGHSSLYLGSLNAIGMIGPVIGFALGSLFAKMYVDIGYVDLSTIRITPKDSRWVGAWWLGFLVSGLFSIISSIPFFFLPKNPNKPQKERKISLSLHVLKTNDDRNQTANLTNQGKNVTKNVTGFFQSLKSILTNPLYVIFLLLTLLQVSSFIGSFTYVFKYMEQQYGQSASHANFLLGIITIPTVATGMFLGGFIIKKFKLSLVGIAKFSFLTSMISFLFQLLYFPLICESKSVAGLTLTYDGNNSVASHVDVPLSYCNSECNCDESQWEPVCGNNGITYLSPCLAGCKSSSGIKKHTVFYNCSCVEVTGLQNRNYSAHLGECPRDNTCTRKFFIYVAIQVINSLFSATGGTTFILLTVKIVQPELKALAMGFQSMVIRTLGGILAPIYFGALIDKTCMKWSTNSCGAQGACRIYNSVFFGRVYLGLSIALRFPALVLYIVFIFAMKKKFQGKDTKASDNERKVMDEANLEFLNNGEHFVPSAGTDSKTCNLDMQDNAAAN

[4] = Volume of distribution at steady state in rat at 1 mg/kg, iv and 3 mg/kg, po; format: ADME, organism-based; conditions: in vivo, read-out: Vdss
[5] = target: T2, Solute carrier organic anion transporter family member 2B1 (Homo sapiens, UniProt O94956); experiment: Drug uptake assessed as human OATP2B1-mediated drug accumulation by cell-based assay relative to wild type protein; format: ADME
T2 sequence (O94956 whole entry): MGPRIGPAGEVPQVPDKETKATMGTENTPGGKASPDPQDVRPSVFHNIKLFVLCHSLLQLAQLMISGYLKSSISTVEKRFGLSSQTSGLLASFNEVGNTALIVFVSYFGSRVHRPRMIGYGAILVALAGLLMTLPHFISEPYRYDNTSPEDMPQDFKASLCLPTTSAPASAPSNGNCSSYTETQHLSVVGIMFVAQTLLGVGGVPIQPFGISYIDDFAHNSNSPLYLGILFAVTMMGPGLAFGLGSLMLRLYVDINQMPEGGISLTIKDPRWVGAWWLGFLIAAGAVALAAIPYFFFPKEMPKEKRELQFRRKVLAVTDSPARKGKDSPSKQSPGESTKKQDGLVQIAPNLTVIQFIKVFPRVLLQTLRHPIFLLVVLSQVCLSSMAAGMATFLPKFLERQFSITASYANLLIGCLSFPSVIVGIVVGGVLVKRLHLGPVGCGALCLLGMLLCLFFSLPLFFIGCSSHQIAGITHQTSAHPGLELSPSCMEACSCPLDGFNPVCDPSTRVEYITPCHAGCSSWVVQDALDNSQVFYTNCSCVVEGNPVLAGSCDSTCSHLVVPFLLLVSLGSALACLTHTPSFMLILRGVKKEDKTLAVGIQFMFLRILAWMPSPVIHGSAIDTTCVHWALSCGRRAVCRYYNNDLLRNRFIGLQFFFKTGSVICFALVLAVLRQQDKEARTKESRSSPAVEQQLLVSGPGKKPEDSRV

[6] = Intrinsic clearance in rat liver microsomes; format: ADME; conditions: read-out: CLH
[7] = Intrinsic clearance in human liver microsomes; format: ADME; conditions: read-out: CLH
[8] = Solubility of the compound at pH 6.5; format: physicochemical; conditions: buffer
[9] = Mutagenicity in […] by Ames test in absence of […]; format: toxicity
[10] = Cytotoxicity against THLE cells; format: toxicity, cell-based; conditions: human
[11] = target: T3, Solute carrier family 22 member 6 (Homo sapiens, UniProt Q4U2R8); experiment: Inhibition of OAT1 (unknown origin)
T3 sequence (Q4U2R8 whole entry): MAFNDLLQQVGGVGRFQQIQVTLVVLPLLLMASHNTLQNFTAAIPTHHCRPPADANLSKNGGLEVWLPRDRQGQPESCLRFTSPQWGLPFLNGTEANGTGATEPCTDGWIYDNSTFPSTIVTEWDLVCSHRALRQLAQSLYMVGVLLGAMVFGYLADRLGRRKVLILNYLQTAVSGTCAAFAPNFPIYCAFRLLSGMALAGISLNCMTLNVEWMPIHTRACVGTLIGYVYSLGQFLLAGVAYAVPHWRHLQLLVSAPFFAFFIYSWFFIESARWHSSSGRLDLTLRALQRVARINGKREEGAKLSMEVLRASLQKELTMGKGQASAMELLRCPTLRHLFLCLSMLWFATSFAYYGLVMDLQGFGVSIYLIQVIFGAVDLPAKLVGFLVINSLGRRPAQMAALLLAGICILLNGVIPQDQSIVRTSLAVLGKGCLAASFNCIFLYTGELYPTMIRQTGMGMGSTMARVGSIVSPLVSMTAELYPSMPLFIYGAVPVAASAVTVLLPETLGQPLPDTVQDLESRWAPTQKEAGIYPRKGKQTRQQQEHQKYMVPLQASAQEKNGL

[12] = Intrinsic clearance in human hepatocytes assessed per 10^6 cells; format: ADME, cell-based, Hepatocyte
[13] = Octanol-water partition co-efficient, log D of the compound by shake flask method; format: physicochemical
[14] = Fraction unbound in dog plasma; format: ADME, cell-free, Canis lupus familiaris
[15] = target: Voltage-gated inwardly rectifying potassium channel KCNH2 (Homo sapiens, UniProt Q12809); experiment: Inhibition of human ERG by patch clamp method
Voltage-gated inwardly rectifying potassium channel KCNH2, sequence (Q12809 whole entry): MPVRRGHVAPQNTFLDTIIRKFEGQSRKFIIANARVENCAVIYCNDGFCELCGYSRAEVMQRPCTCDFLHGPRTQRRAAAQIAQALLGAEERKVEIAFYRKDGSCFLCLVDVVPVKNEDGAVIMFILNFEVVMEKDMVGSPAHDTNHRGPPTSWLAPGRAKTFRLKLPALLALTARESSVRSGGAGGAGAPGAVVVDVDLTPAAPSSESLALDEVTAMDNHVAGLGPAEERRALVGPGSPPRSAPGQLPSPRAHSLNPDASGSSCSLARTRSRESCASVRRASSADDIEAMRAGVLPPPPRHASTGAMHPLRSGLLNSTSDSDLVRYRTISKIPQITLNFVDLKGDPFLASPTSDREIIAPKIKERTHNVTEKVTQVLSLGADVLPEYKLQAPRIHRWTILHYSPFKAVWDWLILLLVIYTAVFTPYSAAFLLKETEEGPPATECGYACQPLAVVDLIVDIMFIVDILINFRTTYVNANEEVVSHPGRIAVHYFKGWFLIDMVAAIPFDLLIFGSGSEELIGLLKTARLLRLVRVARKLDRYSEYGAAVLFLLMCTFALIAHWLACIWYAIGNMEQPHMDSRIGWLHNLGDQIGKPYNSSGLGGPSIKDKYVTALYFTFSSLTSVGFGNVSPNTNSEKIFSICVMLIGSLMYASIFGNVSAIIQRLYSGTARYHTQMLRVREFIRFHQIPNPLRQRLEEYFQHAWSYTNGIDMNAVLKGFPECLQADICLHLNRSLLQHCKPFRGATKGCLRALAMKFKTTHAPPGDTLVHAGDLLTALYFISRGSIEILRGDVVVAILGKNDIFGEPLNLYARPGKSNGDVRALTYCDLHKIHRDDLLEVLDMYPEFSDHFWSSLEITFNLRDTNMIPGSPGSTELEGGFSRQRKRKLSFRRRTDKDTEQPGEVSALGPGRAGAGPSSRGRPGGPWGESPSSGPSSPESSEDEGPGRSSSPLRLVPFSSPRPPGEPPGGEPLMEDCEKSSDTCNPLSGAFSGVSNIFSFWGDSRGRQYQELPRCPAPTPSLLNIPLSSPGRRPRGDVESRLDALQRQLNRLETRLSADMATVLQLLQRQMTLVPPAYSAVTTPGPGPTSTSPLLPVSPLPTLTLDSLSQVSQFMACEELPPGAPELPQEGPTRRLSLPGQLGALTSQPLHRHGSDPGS

[16] = Intrinsic clearance in dog liver microsomes; format: ADME, Canis lupus familiaris; conditions: read-out: CLH

Structure (SMILES) | Papp [1] | CL [2] | fold change (FC) [3] | Vd [4] | fold change (FC) [5] | microsomal CLint [6] | microsomal CLint [7] | solubility [8] | Activity [9] | Activity [10] | IC50 [11] | CLH [12] | logD [13] | fraction unbound [14] | IC50 [15] | microsomal CLint [16]
O=S(=O)(Nc1ccc(C(F)(F)F)nc1)c1ccccc1C(F)(F)F | 27 ×10⁻⁶ cm/s | < 2% | 0.582 | 0.4 L/kg | 1.145 | < 14 µL/min/mg | < 8 µL/min/mg | 620 µM (≈ 230 µg/mL) | Non-Toxic | 153 µM | 12.3 µM | < 6 µL/min/1e6 cells | 1.4 | 0.01 | > 100 µM | < 18 µL/min/mg
O=S(=O)(Nc1cncc(C(F)(F)F)c1)c1ccccc1C(F)(F)F | 21 ×10⁻⁶ cm/s | < 2% | 0.702 | 0.14 L/kg | 0.961 | 35 µL/min/mg | 11 µL/min/mg | 489 µM (≈ 181 µg/mL) | Non-Toxic | 228 µM | 9.3 µM | 6 µL/min/1e6 cells | 1.5 | 0.057 | > 100 µM | < 18 µL/min/mg
